Test results reported in ChEMBL document CHEMBL5550085, “A new small molecule DoNA binding to CAG repeat RNA” (Bioorg Med Chem, 2024).
The source made the active and inactive calls. The rule behind the calls is not given here.

Columns and labels:
Type in all cases: nucleic-acid assay
RNA [1] = experiment: Binding affinity to 5' (CAG)2 repeat RNA overhang (unknown origin) at 2 uM by SPR analysis
RNA [2] = experiment: Binding affinity to 5' (CAG)3 repeat RNA overhang (unknown origin) by SPR analysis; conditions: dose 0.063-2 µM
RNA [3] = experiment: Binding affinity to 3' (CAG) repeat RNA hairpin loop (unknown origin) at 2 uM by SPR analysis
RNA [4] = experiment: Binding affinity to (CAG)10 repeat RNA internal loop (unknown origin) by SPR analysis
RNA [5] = experiment: Binding affinity to 5' (CAG)3 repeat RNA overhang (unknown origin) at 2 uM by SPR analysis
RNA [6] = experiment: Binding affinity to (CAG)3 repeat RNA hairpin loop (unknown origin) by SPR analysis; conditions: dose 0.063-2 µM
RNA [7] = experiment: Binding affinity to (CAG)2 repeat RNA (unknown origin) at 0.063 to 2 uM by SPR analysis; conditions: dose 0.063-2 µM
RNA [8] = experiment: Binding affinity to (CAG)10 repeat RNA (unknown origin) assessed as dissociation rate constant by SPR analysis
RNA [9] = experiment: Binding affinity to 5' (CAG)2 repeat RNA overhang (unknown origin) by SPR analysis; conditions: dose 0.063-2 µM
RNA [10] = experiment: Binding affinity to (CAG)10 repeat RNA (unknown origin) at 20 uM by CSI-TOF MS analysis
RNA [11] = experiment: Binding affinity to (CAG)2 repeat RNA hairpin loop (unknown origin) by SPR analysis
RNA [12] = experiment: Binding affinity to (CAG)3 repeat RNA (unknown origin) at 0.063 to 2 uM by SPR analysis; conditions: dose 0.063-2 µM
RNA [13] = experiment: Binding affinity to 5' (CAG) repeat RNA hairpin loop (unknown origin) at 2 uM by SPR analysis
RNA [14] = experiment: Binding affinity to (CAG)10 repeat RNA (unknown origin) by SPR analysis; conditions: dose 1.0 µM
RNA [15] = experiment: Binding affinity to (CAG)10 repeat RNA (unknown origin) assessed as association constant by SPR analysis
RNA [16] = experiment: Binding affinity to (CAG)10 repeat RNA (unknown origin) assessed as dissociation constant by SPR analysis
RNA [17] = experiment: Binding affinity to 3' (CAG)2 repeat RNA overhang (unknown origin) at 0.063 to 2 uM by SPR analysis; conditions: dose 0.063-2 µM
RNA [18] = experiment: Binding affinity to (CAG)10 repeat RNA (unknown origin) at 2 uM by SPR analysis
RNA [19] = experiment: Binding affinity to CAG repeat RNA terminal (unknown origin)
RNA [20] = experiment: Binding affinity to CAG repeat RNA overhang (unknown origin)

| Activity (RNA [1]) | Activity (RNA [2]) | Activity (RNA [3]) | Activity (RNA [4]) | Activity (RNA [5]) | Activity (RNA [6]) | Activity (RNA [7]) | Kdiss (RNA [8]) | Activity (RNA [9]) | Activity (RNA [10]) | Activity (RNA [11]) | Activity (RNA [12]) | Activity (RNA [13]) | Activity (RNA [14]) | Ka (RNA [15]) | Kd (RNA [16]) [µM] | Activity (RNA [17]) | Activity (RNA [18]) | Activity (RNA [19]) | Activity (RNA [20]) | SMILES |
| --- | --- | --- | --- | --- | --- | --- | --- | --- | --- | --- | --- | --- | --- | --- | --- | --- | --- | --- | --- | --- |
| inactive | Dose-Dependent Effect | Active | Active | inactive | Dose-Dependent Effect | Active | 2.9 10^-2/s | Dose-Dependent Effect | Active | inactive | Active | Active | Dose-Dependent Effect | 0.47 10^4/M/s | 6.1 | Active | – | – | – | Cc1ccc2ccc(NC(=O)CCN(CCCCCN(CCC(=O)NCc3ccc4ccc(=O)[nH]c4n3)CCC(=O)Nc3ccc4ccc(C)nc4n3)CCC(=O)NCc3ccc4ccc(=O)[nH]c4n3)nc2n1 |
| – | – | – | – | – | – | – | – | – | – | – | – | – | – | – | – | – | inactive | inactive | inactive | Cc1ccc2ccc(NC(=O)CCNCCC(=O)NCc3ccc4ccc(=O)[nH]c4n3)nc2n1 |
